The conditions of data set [1]: cited from earlier work.
The test system of data set [2] is odor-causing gram positive bacteria. The settings on record: cited from earlier work.
The conditions of data set [3]: 0.3% by weight in ethanol base deodorant, versus triclosan; cited from earlier work.
For data set [4], the system named is Staphylococcus aureus (ATCC 6538). Briefly: Surviving microorganisms after direct inoculation of gel formula. The class given is cell-based. As for the experimental part:
The antimicrobially synergistically effect of alpha bisabolol (Natural) for glyceryl monoalkyl ether was studied and the results are summarized in Tables 15 and 16, below. […] Subsequently the steareth-100, sodium stearate, and […] alcohol were added and the mixture cooled. […] The final compositions were then poured into containers and cooled to room temperature. […] Therefore following formula is gel type. Inoculate test microorganisms to provide a suspension containing from 105 to 106 microorganisms/ml and after 1 hr, 5 hr and 24 hr, check the surviving microorganisms by incubating in the soybean-casein digest agar for 24 hours at 32.5° C. the results are summarized below.

Molecules are shown by their SMILES.

For `CCCCC(CC)COCC(O)CO` (stereo not shown) [Ethylhexylglycerin], in data set [1] (against hydrolysis and elevated temperatures), the stability result is “rather stable”. Moreover, the “solubility in fats and organic solvents” value in data set [1] (fats, alcohols, glycols and glycol ethers) is on record as “completely soluble”. For the same compound, the solubility in water in data set [1] (water) was 0.2%. In addition, in data set [2], the “anti-microbial activity against odor-causing gram positive bacteria” value is on record as “very low”. Moreover, the deodorant effectiveness entry in data set [3] is on record as “just as effective as 0.1% by weight triclosan”.
As for `CC(C)=CCC[C@](C)(O)[C@@H]1CC=C(C)CC1` [alpha bisabolol (Natural), alpha-bisabolol], the anti-microbial activity alone entry in data set [4] (0.2% by weight, with no ethylhexylglycerin) was “no anti-microbial activity”. Moreover, the “effect on the anti-microbial activity of ethylhexylglycerin” value in data set [4] (combination with ethylhexylglycerin) was “surprising and unexpected synergistic effect”.

The values are drawn from patent US20050089488A1, “Deodorant composition with monocyclic, unsaturated sequiterpene alcohols and glyceryl monoalkyl ethers as synergistic active deodorant agents” (priority 2003, published 2005).
